Patent US6649201B2, “Eggshell derived monocalcium and dicalcium phosphate” (Board of Regents of University of Nebraska, priority 2001, dated 2003)

Assay: 21-day starter chick feeding study: relative bioavailability of phosphate sources (slope ratio assay)
Conditions: in vivo
Source text: (CDP) source in starter chick diets. […] Each dietary treatment was replicated six times with eleven chicks per pen during a 21-day experimental period. […] A slope ratio assay using linear regression analysis was used to determine relative bioavailabilities.

eggshell derived monocalcium phosphate [EDMCP]
availability of the phosphate fraction to the animal vs currently available commercial products: more available
